In ChEMBL document CHEMBL3885861, “Open TG-GATES”:

Species: Rattus norvegicus
Assay: Open TG-GATES - Regimen: Single
Format: toxicity, organism-based, Sprague-Dawley
Design: regimen Single, gender Male, age 6 weeks
Settings: in vivo, po, route gavage; for Bas / Eos / Fbg / Hb / Ht / Lym / MCHC / MCV / Mono / Neu / RBC / Ret / WBC / Plat: tissue Blood; for KIDNEY_TOTAL: tissue Kidney; for LIVER: tissue Liver; for ALT / AST / BUN / CRE / Ca / Cl / DBIL / GLC / IP / K / LDH / Na / PL / RALB / TBIL / TC / TP / gamma-GTP: tissue Plasma
[1] = 0 mg/kg, 3 h, dose level Control
[2] = 0 mg/kg, 6 h, dose level Control
[3] = 0 mg/kg, 9 h, dose level Control
[4] = 0 mg/kg, 24 h, dose level Control

## C[C@@H]1C[C@H]2[C@@H]3CCC4=CC(=O)C=C[C@]4(C)[C@@]3(F)[C@@H](O)C[C@]2(C)[C@@]1(O)C(=O)CO [DEXAMETHASONE]
[1]
  TERMINAL_BW: 213.8 g
  Bas: 0%
  Eos: 1%
  Fbg: 235.6 mg/dL
  Hb: 13 g/dL
  Ht: 39.6%
  Lym: 74.6%
  MCHC: 32.7%
  MCV: 64.5 fL
  Mono: 7%
  Neu: 18%
  RBC: 615 x10_4/ul
  Ret: 8.3%
  WBC: 98.2 x10_2/uL
  KIDNEY_TOTAL: 0.6 g
  LIVER: 10.5 g
  ALT: 38.4 IU/L
  AST: 70.4 IU/L
  BUN: 11.2 mg/dL
  CRE: 0.4 mg/dL
  Ca: 10.9 mg/dL
  Cl: 103.4 meq/L
  DBIL: 0.012 mg/dL
  GLC: 193.2 mg/dL
  IP: 9.8 mg/dL
  K: 4.1 meq/L
  LDH: 79.4 IU/L
  Na: 140.8 meq/L
  PL: 140.6 mg/dL
  RALB: 3.7 g/dL
  TBIL: 0.044 mg/dL
  TC: 79 mg/dL
  TP: 5.3 g/dL
  gamma-GTP: 0.8 IU/L
[2]
  TERMINAL_BW: 209.7 g
  Bas: 0%
  Eos: 0.6%
  Fbg: 234.6 mg/dL
  Hb: 13.3 g/dL
  Ht: 40.4%
  Lym: 80.6%
  MCHC: 32.9%
  MCV: 64.6 fL
  Mono: 4.4%
  Plat: 118.9 x10_4/uL
  RBC: 627.4 x10_4/ul
  Ret: 7.5%
  WBC: 103.8 x10_2/uL
  KIDNEY_TOTAL: 0.7 g
  LIVER: 9.7 g
  ALT: 34.2 IU/L
  AST: 65.2 IU/L
  BUN: 10.2 mg/dL
  CRE: 0.4 mg/dL
  Ca: 11 mg/dL
  Cl: 103.8 meq/L
  DBIL: 0.014 mg/dL
  GLC: 164.8 mg/dL
  IP: 9.5 mg/dL
  K: 4.3 meq/L
  LDH: 74.2 IU/L
  Na: 140.2 meq/L
  PL: 149.6 mg/dL
  RALB: 3.9 g/dL
  TBIL: 0.06 mg/dL
  TC: 84.8 mg/dL
  TP: 5.6 g/dL
  gamma-GTP: 0 IU/L
[3]
  TERMINAL_BW: 215.1 g
  Bas: 0%
  Eos: 1%
  Fbg: 233.2 mg/dL
  Hb: 13.2 g/dL
  Ht: 39.9%
  Lym: 73.2%
  MCHC: 33%
  MCV: 63.7 fL
  Mono: 7%
  Neu: 19%
  Plat: 125.1 x10_4/uL
  RBC: 626.8 x10_4/ul
  Ret: 7.8%
  WBC: 104.7 x10_2/uL
  KIDNEY_TOTAL: 0.7 g
  LIVER: 9.4 g
  ALT: 30.6 IU/L
  AST: 59.4 IU/L
  BUN: 11 mg/dL
  CRE: 0.3 mg/dL
  Ca: 10.5 mg/dL
  Cl: 104 meq/L
  DBIL: 0.01 mg/dL
  GLC: 171.4 mg/dL
  IP: 10.1 mg/dL
  K: 4.4 meq/L
  LDH: 80.4 IU/L
  Na: 140.8 meq/L
  PL: 141.8 mg/dL
  RALB: 3.8 g/dL
  TBIL: 0.046 mg/dL
  TC: 82.8 mg/dL
  TP: 5.5 g/dL
  gamma-GTP: 0.8 IU/L
[4]
  TERMINAL_BW: 229.3 g
  Bas: 0%
  Eos: 1%
  Fbg: 239.6 mg/dL
  Hb: 13.2 g/dL
  Ht: 40.1%
  Lym: 73.4%
  MCHC: 33%
  MCV: 65.6 fL
  Mono: 10.2%
  Neu: 15.6%
  Plat: 124.7 x10_4/uL
  RBC: 611.2 x10_4/ul
  Ret: 7.6%
  WBC: 107 x10_2/uL
  KIDNEY_TOTAL: 0.7 g
  LIVER: 11.3 g
  ALT: 40.6 IU/L
  AST: 67.2 IU/L
  BUN: 15.8 mg/dL
  CRE: 0.4 mg/dL
  Ca: 10.9 mg/dL
  Cl: 103 meq/L
  DBIL: 0.014 mg/dL
  GLC: 192.6 mg/dL
  IP: 8 mg/dL
  K: 4.4 meq/L
  LDH: 89.8 IU/L
  Na: 140 meq/L
  PL: 172.2 mg/dL
  RALB: 3.9 g/dL
  TBIL: 0.04 mg/dL
  TC: 95.4 mg/dL
  TP: 5.7 g/dL
  gamma-GTP: 0 IU/L
1 mg/kg, 3 h, dose level Low
  TERMINAL_BW: 220.4 g
  Bas: 0%
  Eos: 0.4%
  Fbg: 254 mg/dL
  Hb: 13.2 g/dL
  Ht: 40.3%
  Lym: 67%
  MCHC: 32.7%
  MCV: 64 fL
  Mono: 3.4%
  Neu: 29.2%
  Plat: 115.4 x10_4/uL
  RBC: 630 x10_4/ul
  Ret: 8.3%
  WBC: 45.1 x10_2/uL
  KIDNEY_TOTAL: 0.7 g
  LIVER: 11.2 g
  ALT: 43.2 IU/L
  AST: 72 IU/L
  BUN: 17 mg/dL
  CRE: 0.4 mg/dL
  Ca: 11.2 mg/dL
  Cl: 102.2 meq/L
  DBIL: 0.01 mg/dL
  GLC: 192.6 mg/dL
  IP: 12 mg/dL
  K: 4 meq/L
  LDH: 100.6 IU/L
  Na: 142.2 meq/L
  PL: 172 mg/dL
  RALB: 4.3 g/dL
  TBIL: 0.042 mg/dL
  TC: 102 mg/dL
  TP: 6.2 g/dL
  gamma-GTP: 1 IU/L
1 mg/kg, 6 h, dose level Low
  TERMINAL_BW: 204.4 g
  Bas: 0%
  Eos: 0.2%
  Fbg: 250.2 mg/dL
  Hb: 13.1 g/dL
  Ht: 40.4%
  Lym: 59%
  MCHC: 32.6%
  MCV: 64.5 fL
  Mono: 3.2%
  Neu: 37.2%
  Plat: 113.5 x10_4/uL
  RBC: 627 x10_4/ul
  Ret: 6.5%
  WBC: 28.2 x10_2/uL
  KIDNEY_TOTAL: 0.5 g
  LIVER: 10.8 g
  ALT: 39 IU/L
  AST: 73.8 IU/L
  BUN: 17.4 mg/dL
  CRE: 0.4 mg/dL
  Ca: 10.9 mg/dL
  Cl: 102.8 meq/L
  DBIL: 0.008 mg/dL
  GLC: 215.8 mg/dL
  IP: 8.2 mg/dL
  K: 4.3 meq/L
  LDH: 91.4 IU/L
  Na: 138.6 meq/L
  PL: 179.4 mg/dL
  RALB: 4.4 g/dL
  TBIL: 0.038 mg/dL
  TC: 124.4 mg/dL
  TP: 6.3 g/dL
  gamma-GTP: 0 IU/L
1 mg/kg, 9 h, dose level Low
  TERMINAL_BW: 198.1 g
  Bas: 0%
  Eos: 0.2%
  Fbg: 263.4 mg/dL
  Hb: 13.4 g/dL
  Ht: 40.9%
  Lym: 55.8%
  MCHC: 32.7%
  MCV: 64.7 fL
  Mono: 1.4%
  Neu: 42.4%
  Plat: 127.4 x10_4/uL
  RBC: 633 x10_4/ul
  Ret: 7.3%
  WBC: 28.3 x10_2/uL
  KIDNEY_TOTAL: 0.5 g
  LIVER: 10.7 g
  ALT: 38.8 IU/L
  AST: 76.6 IU/L
  BUN: 19.2 mg/dL
  CRE: 0.4 mg/dL
  Ca: 10.6 mg/dL
  Cl: 102 meq/L
  DBIL: 0.006 mg/dL
  GLC: 217 mg/dL
  IP: 7.8 mg/dL
  K: 4.4 meq/L
  LDH: 96.2 IU/L
  Na: 138 meq/L
  PL: 181.6 mg/dL
  RALB: 4.7 g/dL
  TBIL: 0.038 mg/dL
  TC: 126 mg/dL
  TP: 6.8 g/dL
  gamma-GTP: 0.8 IU/L
1 mg/kg, 24 h, dose level Low
  TERMINAL_BW: 210.9 g
  Bas: 0%
  Eos: 0.8%
  Fbg: 239.6 mg/dL
  Hb: 13.8 g/dL
  Ht: 41.6%
  Lym: 61.4%
  MCHC: 33.1%
  MCV: 64.9 fL
  Mono: 4.8%
  Neu: 33%
  Plat: 122.7 x10_4/uL
  RBC: 642.2 x10_4/ul
  Ret: 5.8%
  WBC: 73.8 x10_2/uL
  KIDNEY_TOTAL: 0.5 g
  LIVER: 12 g
  ALT: 35.4 IU/L
  AST: 79.8 IU/L
  BUN: 16.4 mg/dL
  CRE: 0.4 mg/dL
  Ca: 10.9 mg/dL
  Cl: 99.8 meq/L
  DBIL: 0.016 mg/dL
  GLC: 191.8 mg/dL
  IP: 8 mg/dL
  K: 4.9 meq/L
  LDH: 110.2 IU/L
  Na: 139.2 meq/L
  PL: 219.2 mg/dL
  RALB: 4.6 g/dL
  TBIL: 0.046 mg/dL
  TC: 104.2 mg/dL
  TP: 6.4 g/dL
  gamma-GTP: 0 IU/L
